Results on one compound are retold here after patent US10273290B2, “Hydrocarbon double-stapled stabilized HIV-1 GP41 heptad repeat domain peptides” (DANA-FARBER CANCER INSTITUTE, INC., priority 2009, dated 2019).

“Also recorded” adds a separate entry of the source. Bridge positions count the residues as written; N and C are the ends. Square brackets hold non-standard residues; d marks the D form. Peptide text beside a SMILES is read from it. S5 = C=CCCC[C@](C)(N)C(=O)O; Nle = CCCC[C@H](N)C(=O)O

Broadly, the Cmax is the highest concentration seen after dosing.

The nature of data set [1]: in vivo. To be noted: mouse, plasma, iv.
Source text: Plasma concentration, mean+standard error; ND, nondetectable.
In data set [2] the test system is resistant primary R5 isolate YU2. Kind of data set: Luciferase-based HIV-1 infectivity assay, YU2. The format is cell-based. To be noted: compared to T649v. From the text: Also the direct inhibitory activity of modified polypeptides and the antibodies targeted thereto can be quantified based upon their capacity to directly block HIV infection of CD4-positive and CCR5-expressing canine thymus cells. Recombinant HIV-1 viruses (eg. HXBc2, YU2, and additional strains available through the NIH AIDS Research and Reference Reagent Program) expressing firefly luciferase and containing the indicated envelope glycoproteins can be used to infect Cf2Th-CD4-CCR5/CXCR4 cells in the presence of serially diluted modified HIV-1 gp41 polypeptides or antibodies targeted thereto After 48 hours, the cells are lysed and luciferase activity is quantified (Si, Z. H., M. Cayabyab, and J. Sodroski, Journal of Virology, 2001. 75(9): p. 4208-4218 Si, Z. H., et al., PNAS, 2004. 101(14): p. 5036-5041). The identical experiment is performed with the amphotropic murine leukemia virus (AMLV), to monitor for any nonspecific effects of the modified polypeptides or antibodies. […]
HIV-1 infectivity assays were performed using known methods (Madani et al., 2007 Inhibition of human immunodeficiency virus envelope glycoprotein-mediated single cell lysis by low-molecular-weight antagonists of viral entry. J Virol, 81: 532-538; and Si et al., 2001 Envelope glycoprotein determinants of neutralization resistance in a simian-human immunodeficiency virus (SHIV-HXBc2P 3.2) derived by passage in monkeys. J Virol, 75:4208-4218; both incorporated herein by reference). […] D-luciferin (50 μL of 1 mM stock in 100 μL luciferin buffer) is then added to each well and luciferase activity measured using a luminometer (EG&G Berthold).
To assess the functional impact of hydrocarbon stapling on gp41-based fusion inhibitor activity, SAH-gp41 peptides were tested and compared to their unmodified counterparts in a luciferase-based HIV-1 infectivity assay. Recombinant HIV-1 bearing the envelope glycoproteins from three distinct HIV-1 strains, HXBc2, ADA, and HXBc2P 3.2, and a negative control virus bearing the amphotropic murine leukemia virus (A-MLV) envelope glycoproteins, were evaluated. […]

Data set [3] is described as follows: Pharmacokinetics in mice, intravenous or oral gavage. Format: in vivo, Male C57/BL6 mice. Here is the method: Peptides were incubated (5-10 μg) with mouse plasma at 37° C. or injected (10, mg/kg) by tail vein into male C57/BL6 mice. […] For ex vivo serum stability studies, peptide half-lives were calculated by nonlinear regression analysis of exponential decay curves plotted using Prism software (Graphpad). In vivo plasma concentrations at the indicated time points were used to calculate plasma half-life, peak plasma levels, total plasma clearance, and apparent volume of distribution using noncompartmental analysis.
Blood samples withdrawn at 30 minutes by retro-orbital bleed were subjected to quantitation using LC/MS-based blood tests.

The subject of data set [4] is HIV-1 strains HXBc2, ADA, and HXBc2P 3.2. Kind of data set: Luciferase-based HIV-1 infectivity assay, three strains. Format: cell-based. As for the experimental part: Also the direct inhibitory activity of modified polypeptides and the antibodies targeted thereto can be quantified based upon their capacity to directly block HIV infection of CD4-positive and CCR5-expressing canine thymus cells. […] The identical experiment is performed with the amphotropic murine leukemia virus (AMLV), to monitor for any nonspecific effects of the modified polypeptides or antibodies.
HIV-1 infectivity assays were performed using known methods (Madani et al., 2007 Inhibition of human immunodeficiency virus envelope glycoprotein-mediated single cell lysis by low-molecular-weight antagonists of viral entry. J Virol, 81: 532-538; and Si et al., 2001 Envelope glycoprotein determinants of neutralization resistance in a simian-human immunodeficiency virus (SHIV-HXBc2P 3.2) derived by passage in monkeys. J Virol, 75:4208-4218; both incorporated herein by reference). […] Virus-containing supernatants were harvested 24-30 hr after transfection, filtered, aliquoted, and stored at −80° C. Target cells were seeded at a density of 6×10^3 cells/well in 96-well plates 24 hours prior to infection. Cf2Th-CD4-CCR5 cells were used for infections by viruses with the ADA, YU2, and A-MLV envelope glycoproteins, and Cf2Th-CD4-CXCR4 cells used for HXBc2, HXBc2P 3.2, and A-MLV. On the day of infection, the structured peptides (0-3 μM) were added to recombinant viruses (10,000 RT units) to a final volume of 50 μL and incubated at 37° C. for 30 min. Media was then removed and the target cells incubated with virus-peptide mixture for 48 hours at 37° C. The media was again removed and the cells lysed with 30 μL of passive lysis buffer (Promega) and three freeze-thaw cycles.
Recombinant HIV-1 bearing the envelope glycoproteins from three distinct HIV-1 strains, HXBc2, ADA, and HXBc2P 3.2, and a negative control virus bearing the amphotropic murine leukemia virus (A-MLV) envelope glycoproteins, were evaluated.

With `CCCC[C@H](NC(C)=O)C(=O)N[C@H](C(=O)N[C@@H](Cc1c[nH]c2ccccc12)C(=O)N[C@@]1(C)CCCC=CCCC[C@@](C)(C(=O)N[C@@H](CCC(=O)O)C(=O)N[C@H](C(=O)N[C@@H](CC(N)=O)C(=O)N[C@@H](CC(N)=O)C(=O)N[C@@H](Cc2ccc(O)cc2)C(=O)N[C@H](C(=O)N[C@@H](CO)C(=O)N[C@@H](CC(C)C)C(=O)N[C@H](C(=O)N[C@@H](Cc2c[nH]cn2)C(=O)N[C@@H](CO)C(=O)N[C@@H](CC(C)C)C(=O)N[C@H](C(=O)N[C@@H](CCC(=O)O)C(=O)N[C@@H](CCC(=O)O)C(=O)N[C@@H](CO)C(=O)N[C@@H](CCC(N)=O)C(=O)N[C@@H](CC(N)=O)C(=O)N[C@@H](CCC(N)=O)C(=O)N[C@@]2(C)CCCC=CCCC[C@@](C)(C(=O)N[C@@H](CCC(N)=O)C(=O)N[C@@H](CCC(=O)O)C(=O)N[C@@H](CC(C)C)C(=O)N[C@@H](CC(C)C)C(=O)N[C@@H](CCC(=O)O)C(N)=O)NC(=O)[C@H](CC(N)=O)NC(=O)[C@H](CCCCN)NC(=O)[C@H](CCC(=O)O)NC2=O)[C@@H](C)CC)[C@@H](C)CC)[C@@H](C)O)[C@@H](C)CC)NC(=O)[C@H](CC(=O)O)NC(=O)[C@H](Cc2c[nH]c3ccccc23)NC(=O)[C@H](CCC(=O)O)NC1=O)[C@@H](C)O` [SAH-gp41(626-662)(A, F)] (Ac-[Nle]TW[S5]EWD[S5]EINNYTSLIHSLIEESQNQ[S5]EKN[S5]QELLE-NH2; staple 4-8, 28-32; N-terminus and C-terminus assumed), the “CL” value turned out to be 1.0 mL/min/kg. The compound further gave a peak concentration (Cmax) in data set [1] of 140 µg/mL. Also, the “anti-YU2 activity, in words” value in data set [2] is “enhanced anti-YU2 activity”. For the same compound, the “level measured in the blood, fold of unmodified peptide” value in data set [3] (10 mg/kg, blood samples at 30 minutes) is “more than 6 fold”. Further, the “in vivo stability, in words” value in data set [3] (intravenous, 10 mg/kg, plasma concentrations of intact peptide) is recorded as “marked in vivo stability”. The “fold decrease in clearance” value in data set [3] (noncompartmental analysis) is on record as “about 10 fold”. In data set [3] (noncompartmental analysis, serial blood draws), the “fold enhancement in area under the curve (AUC)” value is “about 10 fold”. In data set [3] (oral gavage, 30 minutes after administration), the “intact peptide in blood/plasma after oral administration” value was “measurable and dose-responsive levels; also recorded: measurable and dose-responsive plasma concentrations”. Further, the “anti-HIV-1 (anti-viral) activity, in words” value in data set [4] is “potent anti-viral activity”.
